Results as given in patent publication US5922715A, “5-aminoalkoxy-1, 4-dihydroquinoxaline-2, 3-diones” (American Home Products Corporation, priority 1998, dated 1999).

Assays:
[1] = molecular target: T1, dopamine D2 (dopamine autoreceptor) (Rattus norvegicus, UniProt P61169); test: Affinity for the dopamine autoreceptor: 3H-quinpirole (Quin.) binding, homogenized rat striatal brain tissue
T1 construct: homogenized rat striatal brain tissue; from tissue; host or cells: rat striatal brain tissue, homogenized
Description: Affinity for the dopamine autoreceptor was established by a modification of the standard experimental test procedure of Seamen and Schaus, European Journal of Pharmacology 203, 105-109, 1991, wherein homogenized rat striatal brain tissue is incubated with ^3 H-quinpirole (Quin.) and various concentrations of test compound, filtered and washed and counted in a Betaplate scintillation counter.

dopamine D-2 receptor = molecular target: T2, dopamine D-2 receptor (Rattus norvegicus, UniProt P61169); test: High affinity for the dopamine D-2 receptor: 3H-spiroperidol (Spiper.) binding, homogenized limbic brain tissue; conditions: read-out: IC50 (nM) D2 Spiper
T2 construct: homogenized limbic brain tissue; from tissue; host or cells: limbic brain tissue, homogenized
Description: High affinity for the dopamine D-2 receptor was established by the standard experimental test procedure of Fields, et al., Brain Res., 136, 578 (1977) and Yamamura et al., eds., Neurotranrutter Receptor Binding, Raven Press, N.Y. (1978) wherein homogenized limbic brain tissue is incubated with ^3 H-spiroperidol (Spiper.) and various concentrations of test compound, filtered and washed and shaken with Hydrofluor scintillation cocktail (National Diagnostics) and counted in a Packard 460 CD scintillation counter.

T1 sequence (P61169 whole entry): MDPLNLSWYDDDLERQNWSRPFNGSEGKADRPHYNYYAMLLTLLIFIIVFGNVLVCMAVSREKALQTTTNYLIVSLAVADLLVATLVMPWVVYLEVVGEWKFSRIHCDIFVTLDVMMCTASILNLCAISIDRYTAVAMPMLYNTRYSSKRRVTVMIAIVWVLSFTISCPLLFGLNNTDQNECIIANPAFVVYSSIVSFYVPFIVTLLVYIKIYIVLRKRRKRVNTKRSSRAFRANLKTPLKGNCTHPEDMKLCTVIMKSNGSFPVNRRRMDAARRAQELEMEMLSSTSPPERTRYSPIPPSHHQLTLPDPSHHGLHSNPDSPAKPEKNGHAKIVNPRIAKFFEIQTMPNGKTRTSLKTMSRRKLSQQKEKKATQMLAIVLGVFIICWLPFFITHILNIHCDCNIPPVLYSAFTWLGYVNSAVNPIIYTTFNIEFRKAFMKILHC
T2 sequence (P61169 whole entry): as above

SMILES	IC50 [1] [nM]	IC50 (dopamine D-2 receptor) [nM]
O=c1[nH]c2cccc(OCCNCc3ccc(Cl)cc3)c2[nH]c1=O [Example 2, 5-[2-(4-Chloro-benzylamino)-ethoxy]-1,4-dihydro-quinoxaline-2,3-dione]	64.6	–
O=c1[nH]c2cccc(OCCNCc3ccccc3)c2[nH]c1=O [Example 1, 5-(2-Benzylamino-ethoxy)-1,4-dihydro-quinoxaline-2,3-dione]	20.8	2190
